Where a SMILES comes first, the peptide text is derived from it. The star is where a group is joined. X1 = CCCCCCCCCCCCCCNC(=O)OC[C@H](C*)OC(=O)NCCCCCCCCCCCCCC; Palmitoyl = CCCCCCCCCCCCCCCC(=O)*
Assays:
RAW 264.7 cells = test: TNFα production by WT RAW 264.7 cells; assay type: cell-based; settings: 500 nM, 8 h
Procedure: Splenic DCs (5 × 10^5 cells/mL) were stimulated by Pam3 (200 nM), SUP3 (200 nM), or CpG ODN 1668 (20 nM; Adipogen IAX-200-001) in the GM-CSF (20 ng/mL) supplemented medium for indicated periods. Cell culture supernatants were harvested at indicated time points and stored at −40°C. […] For in vivo administration, Pam3 (2 nmol per mouse), SUP3 (2 nmol per mouse), or LPS (1 µg per mouse) were intravenously (i.v.) injected via tail veins. Serum was obtained through tail vein bleeding and centrifuged after coagulation and stored at −40°C. Cytokines (IL-6, eBioscience 88-7064; TNFα, eBioscience 88-7324; IL-12p40, BioLegend 431604), chemokine (MIP1α, R&D Systems DY450-05), and total IgM (eBioscience, 88-50470) were quantified by ELISA kits following the instructions of manufacturers.
Figure 1 Specificity and activity of novel TLR2 agonist SUP3. (A) Schematic chemical structure of SUP3. (B) Surface expression of TLR2 in wild-type (WT) and Tlr2^−/− RAW 264.7 cell lines. Gray shadows represented isotype control and black lines represented TLR2. (C) TNFα production by RAW 264.7 cells upon stimulation with lipopolysaccharide (LPS) (1 µg/mL), Pam3CSK4 (Pam3 hereafter) (500 nM), or SUP3 (500 nM) for 8 h. […] The production of cytokines IL-6 and TNFα in culture supernatant was determined by ELISA. *p < 0.05, ****p < 0.0001, “n.s.” indicates statistically non-significant.

CD8^+ cDCs = test: Costimulatory and MHC molecule expression on CD8+ cDCs in vitro; assay type: cell-based, mice; settings: 200 nM, GM-CSF 20 ng/mL, 24 h, flow cytometry
Procedure: Single cell suspensions were prepared, and cells were stained by fluorescence-conjugated antibodies and viability dye 7-AAD (eBioscience 00-6993) at 4°C for 30 min in the dark. Cells were washed, resuspended, and analyzed on LSR Fortessa (Becton Dickinson).
Figure 4 SUP3 stimulated maturation of CD8^+ conventional dendritic cells (cDCs). (A) Purified CD8^+ cDCs were treated with SUP3 (200 nM) or Pam3 (200 nM) in the presence of granulocyte-macrophage colony-stimulating factor (GM-CSF) (20 ng/mL) for 24 h. The surface expression of costimulatory and major histocompatibility complex (MHC) molecules were then analyzed by flow cytometry. Representative data from three independent experiments were shown. “Isotype” represented relative isotype antibody staining of Pam3 or SUP3 stimulated cells. (B) SUP3 (2 nmol per mouse), Pam3 (2 nmol per mouse), or PBS were i.v. injected into mice for 1 h. Splenic CD8^+ cDCs were enriched, and surface expression of CD40 and CD86 was analyzed by flow cytometry. Representative data from two independent experiments with three mice for each group were shown. […] Supernatants were harvested 24 and 48 h post-stimulation, and cytokines were measured by ELISA. […]

Row | Molecule | TNFα production by WT RAW cells (RAW 264.7 cells) | expression of CD40, CD80, CD86, and MHC-II on CD8+ cDCs (CD8^+ cDCs)
1 | Pam3CSK4 [reference compound] | large amount of TNFα production | substantial upregulation
2 | CCCCCCCCCCCCCCCC(=O)N[C@@H](CSC[C@@H](COC(=O)NCCCCCCCCCCCCCC)OC(=O)NCCCCCCCCCCCCCC)C(=O)NCC(=O)N[C@@H](CCCCN)C(=O)N[C@@H](CCCCN)C(=O)N[C@@H](CCCCN)C(=O)O [SUP3, (2S,5S,8S,14R,18R)-2,5,8-tris(4-aminobutyl)-4,7,10,13,21-pentaoxo-14-palmitamido-18-((tetradecylcarbamoyl)oxy)-20-oxa-16-thia-3,6,9,12,22-pentaazahexatriacontan-1-oic acid] (Palmitoyl-C(X1)GKKK-OH) | large amount of TNFα production | substantial upregulation

— publication PMC5318439, “The Novel Toll-Like Receptor 2 Agonist SUP3 Enhances Antigen Presentation and T Cell Activation by Dendritic Cells” (Frontiers in Immunology, 2017)
